Key:
adenosine A2 receptor = molecular target: T1, adenosine A2 receptor (Rattus norvegicus, UniProt P30543); assay: Adenosine Receptor Binding--A2 Receptor Affinity (RBA2), [3H]NECA displacement; assay type: rat (Sprague-Dawley striatal membranes); settings: 4 nM [3H]NECA + 50 nM N6-cyclopentyladenosine, rat striatum, 25° C, 60 min; read-out: RBA-2 (IC50, A2 receptor affinity)
T1 construct: Brains were thawed and then kept on ice while the striata were dissected out; tissue Pel-Freez (Rogers, Arkansas) (rat brains); host or cells: rat striatum, membranes
Protocol: Adenosine Receptor Binding--A2 Receptor Affinity (RBA2)
Brains from 200-500 g mixed sex Sprague-Dawley rats were purchased from Pel-Freez (Rogers, Arkansas). Fresh brains from male Long-Evans hooded rats (Blue Spruce Farms, Altamont, NY) gave essentially identical results. Brains were thawed and then kept on ice while the striata were dissected out. Striata were disrupted in 10 vol of ice-cold 50 mM Tris.HCl (pH 7.7 at 25° C., pH 8.26 at 5° C.) (Tris) for 30 seconds in a Polytron PT-10 (Brinkmann) at setting 5. The suspension was centrifuged at 50,000×g for ten minutes, the supernatant discarded, the pellet resuspended in 10 vol ice-cold Tris as above, recentrifuged, resuspended at 1 g/5 ml, and stored in plastic vials at -70° C. (stable for at least six months). When needed, tissue was thawed at room temperature, disrupted in a Polytron, and kept on ice until used.
All incubations were for 60 minutes at 25° C. in 12×75 mm glass tubes containing 1 ml Tris with 5 mg original tissue weight of rat weight of rat striatal membranes, 4 nM [^3 H]-N-ethyl adenosine-5'-carboxamide ([^3 H]NECA), 50 nM N^6 -cyclopentyladenosine (to eliminate A1 receptor binding), 10 mM MgCl2, 0.1 units/ml of adenosine deaminase and 1% dimethylsulfoxide. N^6 -Cyclopentyladenosine was dissolved at 10 mM in 0.02N HCl and diluted in Tris. Stock solutions and dilutions of N^6 -cyclopentyladenosine could be stored at -20° C. for several months. Test compounds were dissolved at 10 mM in dimethylsulfoxide on the same day as the experiment, and diluted in dimethylsulfoxide to 100× the final incubation concentration. Control incubations received an equal volume (10 μl) of dimethylsulfoxide; the resulting concentration of dimethylsulfoxide had no effect on binding. [^3 H]NECA was diluted to 40 nM in Tris. The membrane suspension (5 mg/0.79 ml) contained sufficient MgCl2 and adenosine deaminase to give 10 mM and 0.1 units/ml, respectively, final concentration in the incubation. […] After all additions, the rack of tubes was vortexed, and the tubes were then incubated for 60 min at 25° C. in a shaking water bath. The rack of tubes was vortexed an additional time halfway through the incubation.
Incubations were terminated by filtration through 2.4 cm GF/B filters under reduced pressure. Each tube was filtered as follows: the contents of the tube were poured on the filter, 4 ml of ice-cold Tris were added to the tube and the contents poured onto the filter, and the filter was washed twice with 4 ml of ice-cold Tris. The filtration was complete in about twelve seconds. Filters were put in scintillation vials, 8 ml of Formula 947 scintillation fluid added, and the vials left overnight, shaken, and counted in a liquid scintillation counter at 40% efficiency.
Nonspecific binding was defined as binding in the presence of 100 μM N^6 -cyclopentyladenosine, and specific binding was defined as total binding minus nonspecific binding. The IC50 was calculated by weighted nonlinear least squares curve-fitting to the mass-action equation. [formula] where Y is cpm bound
T is cpm total binding without drug
S is cpm specific binding without drug
D is the concentration of drug and
K is the IC50 of the drug
Weighting factors were calculated under the assumption that the standard deviation was proportional to the predicted value of Y. Nonspecific binding was treated as a very large (infinite) concentration of drug in the computer analysis.

[1] = system: platelets (ADP-induced aggregation); assay: Antithrombocyte aggregation test in vitro (ATA-8), ADP-induced, platelet rich plasma; assay type: cell-based, human (Community Research Clinic volunteers); settings: Homo sapiens
Protocol: (§1) ANTITHROMBOCYTE AGGREGATION TEST-IN VITRO (ATA-8)
(§2) Source and Preparation of Platelet Suspensions
(§3) Blood is collected from Community Research Clinic volunteers who have not ingested aspirin or other non-steroidol antiinflammatory drugs within the preceeding two weeks and have not eaten within the nine hours before blood draw. Blood is taken in 4.5 ml portions in Vacutainer No. 6462S silicone-coated tubes or equivalent containing 0.5 ml of 3.8% trisodium citrate. Usually six or eight portions of 4.5 ml are drawn from each volunteer. The blood collected from three or four volunteers is pooled prior to centrifugation. The pooled blood is put in 50 ml polyethylene tubes and centrifuged at 80×g (ca 600 rpm) for 20 min in an International Model K centrifuge at room temperature. […] The platelet count of the PRP is determined with a Coulter Thromobocounter. […]
(§4) Platelet-rich plasma adjusted to 250,000 platelets per microliter is distributed in 0.36 ml aliquots into silicone-coated cuvettes of 0.312 inch diameter. […] Extent of aggregation, using ADP stimulus, or rate of aggregation, using collagen stimulus, is determined using the Payton Scientific Dual Channel Aggregation Module, Model 300B. Appropriate concentrations of ADP or collagen are determined by an initial brief titration. […]

[2] = system: platelets (collagen-induced aggregation); assay: Antithrombocyte aggregation test in vitro (ATA-8), collagen-induced, platelet rich plasma; assay type: cell-based, human (Community Research Clinic volunteers); settings: Homo sapiens
Protocol: as §1, §2
as §3, with “centrifugation.” for “centrifugation. The pooled blood is put in 50 ml polyethylene tubes and centrifuged at 80×g (ca 600 rpm) for 20 min in an International Model K centrifuge at room temperature.”
as §4
The major slope (that is, the slope of the first straight line portion) of the collagen-induced aggregation curve for each drug concentration is determined and compared to the slope of the curve for control aggregations. […]

T1 sequence (P30543 whole entry): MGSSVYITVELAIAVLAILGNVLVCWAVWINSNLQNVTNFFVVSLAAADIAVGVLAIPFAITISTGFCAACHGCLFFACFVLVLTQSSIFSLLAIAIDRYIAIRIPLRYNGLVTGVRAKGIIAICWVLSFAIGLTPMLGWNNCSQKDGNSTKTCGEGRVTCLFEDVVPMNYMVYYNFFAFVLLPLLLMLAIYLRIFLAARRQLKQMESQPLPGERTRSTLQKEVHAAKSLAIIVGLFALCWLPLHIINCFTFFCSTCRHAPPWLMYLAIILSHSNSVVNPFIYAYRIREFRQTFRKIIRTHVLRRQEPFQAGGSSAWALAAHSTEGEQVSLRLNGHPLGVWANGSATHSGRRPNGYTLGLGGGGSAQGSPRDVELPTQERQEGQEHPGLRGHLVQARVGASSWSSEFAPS

Row | Compound | IC50 (adenosine A2 receptor) [µM] | IC50 [1] [µM] | IC50 [2] [µM]
1 | CCOC(=O)[C@H]1O[C@@H](n2cnc3c(NC4CC5CCC4C5)ncnc32)[C@H](O)[C@@H]1O (relative stereo) [Example 8, N-6-Norbornyl-adenosine-5'ethylcarboxylate] | 12.4 |  | 
2 | CCNC(=O)[C@H]1O[C@@H](n2cnc3c(NCC(c4ccccc4)c4ccccc4)ncnc32)[C@H](O)[C@@H]1O [Example 3, N^6-(2,2-diphenylethyl)-adenosine-5'-ethylcarboxamide] | 0.025 |  | 
3 | CCNC(=O)[C@H]1O[C@@H](n2cnc3c(NCc4cccc5ccccc45)ncnc32)[C@H](O)[C@@H]1O [Example 6, N-6-Naphthylmethyladenosine-5'-ethylcarboxamide] | 0.008 |  | 

The remaining lines, values ahead:

Row | IC50 (adenosine A2 receptor) [µM] | IC50 [1] [µM] | IC50 [2] [µM] | Compound
4 | 0.07 | 0.6 | 0.2 | CCNC(=O)[C@H]1O[C@@H](n2cnc3c(N[C@H](C)Cc4ccccc4)ncnc32)[C@H](O)[C@@H]1O [Example 1, (R)-N-6-[(2-phenyl-1-methyl)ethyl]-adenosine-5'-ethylcarboxamide]
5 | 0.468 |  |  | CCOC(=O)[C@H]1O[C@@H](n2cnc3c(NCC(c4ccccc4)c4ccccc4)ncnc32)[C@H](O)[C@@H]1O [Example 5, N6-(2,2-diphenylethyl)-5-adenosine-5'-ethylcarboxylate]
